From patent US4742045A, “Glycopeptide antibiotics” (SmithKline Beckman Corporation, priority 1986, dated 1988)

Assays:
Staphylococcus aureus = test: standard microtiter assay, minimum inhibitory concentration; assay type: cell-based; conditions: for MIC: Table 5 organism 1 S. aureus
How it was run: (§1)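 Standard microtiter broth assays, with MIC reported in μg/ml and averaged over several strains per species. The CWI-785 complex was tested, in some cases as HCl salts. Some runs used no serum, 50% human serum or 50% mouse serum.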

Streptococcus faecalis = test: as above; assay type: cell-based
How it was run: as §1

[1] = system: Staphylococcus epidermidis; test: as above; assay type: cell-based
How it was run: (§2)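 Broth microtiter MIC (μg/ml) of CWI-785 antibiotic, as complex, individual components or HCl salts, against several staphylococcal strains. Some assays run without serum or in 50% human or 50% mouse serum.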

[2] = system: Staphylococcus haemolyticus; test: as above; assay type: cell-based; conditions: for MIC: Table 5 organism 3 S. haemolyticus
How it was run: as §2

[3] = system: Staphylococcus saprophyticus; test: as above; assay type: cell-based; conditions: for MIC: Table 5 organism 6 S. saprophyticus
How it was run: as §2

Streptococcus pyogenes = test: as above; assay type: cell-based; conditions: Table 2 test organism 11, Streptococcus pyogenes
Source text: Representative results of standard microtiter assays are reported in Tables 1, 2 and 3 which follow, as the minimum inhibitory concentration of antibiotic (μg/ml).
In Table 1, test organisms 1-13 were different strains of Staphylococcus aureus, and 14-16 were different strains of Staphylococcus epidermidis. In Table 2, test organisms 1-5 were different strains of S. aureus; 6, 8, 12 and 14 were different strains of S. epidermidis; 7 was a Staphylococcus haemolyticus; 9 and 10 were different strains of Streptococcus faecalis; 11 was a Streptococcus pyogenes; and 13 was a Staphylococcus saprophyticus. In Table 3, test organisms 1-3 were different strains of S. aureus; 4 and 6 were different strains of S. epidermidis; 5 was a S. haemolyticus and 7 and 8 were different strains of Streptococcus faecalis. Except where individual components are indicated, the CWI-785 antibiotic employed was the CWI-785 complex; in some cases, HCl salts of the CWI-785 antibiotic were employed.

Coag-neg. Staphylococci = test: MIC against an expanded panel; assay type: cell-based; conditions: Table 4, Coag-neg. Staphylococci (24 strains)
Source text: (§3) The number of strains tested is shown in parentheses below each organism. The average MIC is reported in μg/ml.

Group A Strep. = test: MIC against an expanded panel; assay type: cell-based; conditions: Table 4, Group A Strep. (6 strains)
Source text: as §3

Group B Strep. = test: MIC against an expanded panel; assay type: cell-based; conditions: Table 4, Group B Strep. (4 strains)
Source text: as §3

JK Diptheroids = test: MIC against an expanded panel; assay type: cell-based; conditions: Table 4, JK Diptheroids (19 strains)
Source text: as §3

Viridans = test: MIC against an expanded panel; assay type: cell-based; conditions: Table 4, Viridans (2 strains)
Source text: as §3

S. aureus = test: mice infected intraperitoneally, dosed 1 hr after infection, ED50; assay type: in vivo; conditions: antibiotic i.v. 1 hr post infection
Experimental: (§4) The in vivo activity of the CWI-785 complex and its components and hydrolysis products was confirmed by administering selected CWI-785 antibiotics to mice infected with various gram-positive pathogens. In one representative assay, in which mice infected intraperitoneally with 46.8 LD50 's of S. aureus (strain 1, Tables 1 and 2) were dosed once, subcutaneously one hour after infection, the following ED50 's (mg/kg) were observed: CWI-785B: 2.4, CWI-785C: 3.1, CWI-785: 3.8, HPB3: 0.9, vancomycin: 0.7. In a second representative assay carried out as above except that mice were infected with 3.17 LD50 's of S. faecalis (strain 9, Table 2), the following ED50 's were observed: HPB3 hydrochloride: 1.6, HPB4 hydrochloride: 1.6, vancomycin: 2.2, teicoplanin: 1.3.
(§5) In Table 6, below, is shown the ED50 in mg/kg of HPB4 in comparison to vancomycin and teicoplanin. Mice were injected i.p. with the indicated organism and then i.v., 1 hr post infection, with the indicated antibiotic.

S. faecalis = test: as above; assay type: in vivo
Experimental: as §4, §5

S. haemolyticus = test: mice infected i.p., antibiotic i.v. 1 hr post infection, ED50; assay type: in vivo; conditions: S. haemolyticus 651 (8 × LD50) i.p., antibiotic i.v. 1 hr post infection
Experimental: as §5

STAPH. AUREUS HH 127 = test: prophylactic activity, dosing preinfection; assay type: in vivo, mice
[4] = Table 4, S. aureus (30 strains)
[5] = Table 4, Strep. faecalis (12 strains)

teicoplanin gave a minimum inhibitory concentration (Staphylococcus aureus; Table 1 test organism 1, S. aureus strain) of 1.6 µg/mL, a minimum inhibitory concentration (Staphylococcus aureus; Table 1 test organism 2, S. aureus strain) of 1.6 µg/mL and a minimum inhibitory concentration (Staphylococcus aureus; Table 1 test organism 3, S. aureus strain) of 3.1 µg/mL. It also gave a minimum inhibitory concentration (Staphylococcus aureus; Table 1 test organism 4, S. aureus strain) of 1.6 µg/mL, a minimum inhibitory concentration (Staphylococcus aureus; Table 1 test organism 5, S. aureus strain) of 1.6 µg/mL and a minimum inhibitory concentration (Staphylococcus aureus; Table 1 test organism 6, S. aureus strain) of 1.6 µg/mL. For the same substance, the minimum inhibitory concentration (Staphylococcus aureus; Table 1 test organism 7, S. aureus strain) was 3.1 µg/mL, the minimum inhibitory concentration (Staphylococcus aureus; Table 1 test organism 8, S. aureus strain) was 6.3 µg/mL and the minimum inhibitory concentration (Staphylococcus aureus; Table 1 test organism 9, S. aureus strain) was 6.3 µg/mL. It also gave a minimum inhibitory concentration (Staphylococcus aureus; Table 1 test organism 10, S. aureus strain) of 6.3 µg/mL, a minimum inhibitory concentration (Staphylococcus aureus; Table 1 test organism 11, S. aureus strain) of 3.1 µg/mL and a minimum inhibitory concentration (Staphylococcus aureus; Table 1 test organism 12, S. aureus strain) of 3.1 µg/mL. It also gave a minimum inhibitory concentration (Staphylococcus aureus; Table 1 test organism 13, S. aureus strain) of 0.8 µg/mL, a minimum inhibitory concentration (Staphylococcus aureus; Table 2 test organism 1, S. aureus strain) of 3.1 µg/mL and a minimum inhibitory concentration (Staphylococcus aureus; Table 2 test organism 2, S. aureus strain) of 0.8 µg/mL. It also gave a minimum inhibitory concentration (Staphylococcus aureus; Table 2 test organism 3, S. aureus strain) of 0.4 µg/mL, a minimum inhibitory concentration (Staphylococcus aureus; Table 2 test organism 4, S. aureus strain) of 3.1 µg/mL and a minimum inhibitory concentration (Staphylococcus aureus; Table 2 test organism 5, S. aureus strain) of 1.6 µg/mL. The MIC50 (Staphylococcus aureus; [4]) was 3.1 µg/mL, the “MIC RANGE” value (Staphylococcus aureus; [4]) was 1.6 to 6.3 µg/mL and the MIC (Staphylococcus aureus; 50% Hum. Serum) was 6.3 µg/mL. It also gave an MIC (Staphylococcus aureus; 50% Mse. Serum) of 25.0 µg/mL, an MIC (Staphylococcus aureus; No Serum) of 3.1 µg/mL and a minimum inhibitory concentration (Streptococcus faecalis; Table 2 test organism 9, Streptococcus faecalis strain) of less than 0.1 µg/mL. The minimum inhibitory concentration (Streptococcus faecalis; Table 2 test organism 10, Streptococcus faecalis strain) was less than 0.1 µg/mL, the MIC50 (Streptococcus faecalis; [5]) was “<= 0.1 μg/ml” and the “MIC RANGE” value (Streptococcus faecalis; [5]) was “<=0.1-0.2 μg/ml”. For the same substance, the MBC50 (Streptococcus faecalis; Table 4, Strep. faecalis MBC50) was 6.3 µg/mL, the “MBC RANGE” value (Streptococcus faecalis; Table 4, Strep. faecalis MBC50 column) was 1.6 to 25 µg/mL and the MIC (Streptococcus faecalis; Table 5 organism 7 S. faecalis, 50% Hum. Serum) was 6.3 µg/mL. The MIC (Streptococcus faecalis; Table 5 organism 7 S. faecalis, 50% Mse. Serum) was 1.6 µg/mL, the MIC (Streptococcus faecalis; Table 5 organism 7 S. faecalis, No Serum) was “<= 0.1 μg/ml” and the MIC (Streptococcus faecalis; Table 5 organism 8 S. faecalis, 50% Hum. Serum) was 6.3 µg/mL. The MIC (Streptococcus faecalis; Table 5 organism 8 S. faecalis, 50% Mse. Serum) was 3.1 µg/mL, the MIC (Streptococcus faecalis; Table 5 organism 8 S. faecalis, No Serum) was “<= 0.1 μg/ml” and the minimum inhibitory concentration ([1]; Table 1 test organism 14, S. epidermidis strain) was 1.6 µg/mL. It also gave a minimum inhibitory concentration ([1]; Table 1 test organism 15, S. epidermidis strain) of 12.5 µg/mL, a minimum inhibitory concentration ([1]; Table 1 test organism 16, S. epidermidis strain) of 6.3 µg/mL and a minimum inhibitory concentration ([1]; Table 2 test organism 6, S. epidermidis strain) of 12.5 µg/mL. The minimum inhibitory concentration ([1]; Table 2 test organism 8, S. epidermidis strain) was 12.5 µg/mL, the minimum inhibitory concentration ([1]; Table 2 test organism 12, S. epidermidis strain) was 12.5 µg/mL and the minimum inhibitory concentration ([1]; Table 2 test organism 14, S. epidermidis strain) was 3.1 µg/mL. It also gave an MIC ([1]; Table 5 organism 2 S. epidermidis, 50% Hum. Serum) of 50.0 µg/mL, an MIC ([1]; Table 5 organism 2 S. epidermidis, 50% Mse. Serum) of 50.0 µg/mL and an MIC ([1]; Table 5 organism 2 S. epidermidis, No Serum) of 12.5 µg/mL. For the same substance, the MIC ([1]; Table 5 organism 4 S. epidermidis, 50% Hum. Serum) was 50.0 µg/mL, the MIC ([1]; Table 5 organism 4 S. epidermidis, 50% Mse. Serum) was 25.0 µg/mL and the MIC ([1]; Table 5 organism 4 S. epidermidis, No Serum) was 12.5 µg/mL. The MIC ([1]; Table 5 organism 5 S. epidermidis, 50% Hum. Serum) was greater than 100 µg/mL, the MIC ([1]; Table 5 organism 5 S. epidermidis, 50% Mse. Serum) was “<= 0.1 μg/ml” and the MIC ([1]; Table 5 organism 5 S. epidermidis, No Serum) was 12.5 µg/mL. It also gave a minimum inhibitory concentration ([2]; Table 2 test organism 7, Staphylococcus haemolyticus) of 12.5 µg/mL, an MIC ([2]; 50% Hum. Serum) of 50.0 µg/mL and an MIC ([2]; 50% Mse. Serum) of 50.0 µg/mL. The MIC ([2]; No Serum) was 12.5 µg/mL, the minimum inhibitory concentration ([3]; Table 2 test organism 13, Staphylococcus saprophyticus) was 1.6 µg/mL and the MIC ([3]; 50% Hum. Serum) was 12.5 µg/mL. The MIC ([3]; 50% Mse. Serum) was 1.6 µg/mL, the MIC ([3]; No Serum) was 1.6 µg/mL and the minimum inhibitory concentration (Streptococcus pyogenes) was 0.2 µg/mL. The MIC50 (Coag-neg. Staphylococci) was 12.5 µg/mL, the “MIC RANGE” value (Coag-neg. Staphylococci) was 0.8 to 25 µg/mL and the MIC50 (Group A Strep.) was “<= 0.025 μg/ml”. For the same substance, the “MIC RANGE” value (Group A Strep.) was less than 0.025 to 0.4 µg/mL, the “MIC RANGE” value (Group B Strep.) was 0.1 to 1.6 µg/mL and the MIC50 (JK Diptheroids) was 1.6 µg/mL. The “MIC RANGE” value (JK Diptheroids) was 0.2 to 3.1 µg/mL, the “MIC RANGE” value (Viridans) was 0.05 to 0.1 µg/mL and the ED50 (S. aureus; S. aureus 2620 (24 × LD50) i.p.) was 6.0 mg/kg. The ED50 (S. aureus; S. aureus HH 127 (35 × LD50) i.p.) was 2.5 mg/kg, the ED50 (S. faecalis; S. faecalis 34358 (9 × LD50) i.p., antibiotic i.v. 1 hr post infection) was 1.7 mg/kg and the ED50 (S. faecalis; mice infected with 3.17 LD50's of S. faecalis (strain 9, Table 2), dosed once subcutaneously one hour after infection) was 1.3 mg/kg. For the same substance, the ED50 (S. haemolyticus) was greater than 100 mg/kg, the ED50 (STAPH. AUREUS HH 127; Table 8, vs Staph. aureus HH 127 (I.V.)) was 0.405 mg/kg and the “PERCENT SURVIVAL” value (STAPH. AUREUS HH 127; Table 8: 40 mg/kg (I.V.), 6 hr preinfection) was 100%.
